Assay results reported in ChEMBL document CHEMBL4831477, “Structure-Enabled Discovery of Novel Macrocyclic Inhibitors Targeting Glutaminase 1 Allosteric Binding Site” (J Med Chem, 2021).
Values after ≈ are worked out from the molar mass of the structure shown.

Key:
[1] = target: T1, Glutaminase kidney isoform, mitochondrial (Homo sapiens, UniProt O94925); test: Inhibition of recombinant human GLS1 expressed in Escherichia coli strain BL21 (DE3) preincubated for 10 mins before glutamine addition and measured after 60 mins by bovine liver glutamate dehydrogenase based coupled enzyme assay
T1 sequence (O94925 whole entry): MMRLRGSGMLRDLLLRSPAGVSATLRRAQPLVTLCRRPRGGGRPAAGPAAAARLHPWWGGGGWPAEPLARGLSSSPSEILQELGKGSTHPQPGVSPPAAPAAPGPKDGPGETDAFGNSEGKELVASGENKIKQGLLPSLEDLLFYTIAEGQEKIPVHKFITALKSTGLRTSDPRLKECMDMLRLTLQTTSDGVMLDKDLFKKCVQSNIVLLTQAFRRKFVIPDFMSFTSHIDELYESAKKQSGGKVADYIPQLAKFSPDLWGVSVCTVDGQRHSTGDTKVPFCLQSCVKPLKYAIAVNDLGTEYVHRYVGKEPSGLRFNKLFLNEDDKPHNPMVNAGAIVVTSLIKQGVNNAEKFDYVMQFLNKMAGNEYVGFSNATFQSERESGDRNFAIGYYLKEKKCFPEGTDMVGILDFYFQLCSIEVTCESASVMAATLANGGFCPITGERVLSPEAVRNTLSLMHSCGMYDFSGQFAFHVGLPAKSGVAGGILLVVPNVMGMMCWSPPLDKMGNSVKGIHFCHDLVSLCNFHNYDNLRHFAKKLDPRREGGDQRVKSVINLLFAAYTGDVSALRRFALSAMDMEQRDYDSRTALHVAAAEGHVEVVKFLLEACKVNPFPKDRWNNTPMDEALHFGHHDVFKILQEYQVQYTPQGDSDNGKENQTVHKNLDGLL

HCT-116 [2] = test: Antiproliferative activity against human HCT116 cells assessed as reduction in cell viability incubated for 72 hrs by MTT assay; format: functional, cell-based; details: HCT-116, 72 h
MDA-MB-436 = test: Antiproliferative activity against human MDA-MB-436 cells assessed as reduction in cell viability incubated for 72 hrs by MTT assay; format: functional, cell-based; details: MDA-MB-436, 72 h
HCT-116 [3] = test: Inhibition of colony formation in human HCT-116 cells incubated for 14 days by crystal violet staining based assay; format: functional, cell-based; details: dose 0.1-2 µM, time 14.0 day
[4] = Distribution coefficient, logD of the compound at pH 7.4 by LC-MS based shake-flask method; format: physicochemical; details: octanol/water
[5] = Intrinsic aqueous solubility of compound at pH 7.4 by LC-MS based shake-flask method; format: physicochemical; details: read-out: Intrinsic_solubility
[6] = target: T2, Glutaminase kidney isoform, mitochondrial (Homo sapiens) (UniProt O94925)
T2 sequence (whole entry): T1 sequence (O94925 whole entry)
Description: Binding affinity to human GLS1 expressed in Escherichia coli strain BL21 (DE3) assessed as change in melting temperature by SYPRO orange dye based protein thermal shift assay

[7] = Metabolic stability in mouse plasma assessed as compound remaining after 2 hrs by LC-MS/MS analysis; format: ADME, cell-free; details: read-out: Stability
[8] = Metabolic stability in human plasma assessed as compound remaining after 2 hrs by LC-MS/MS analysis; format: ADME, cell-free; details: read-out: Stability
[9] = Metabolic stability in human liver microsomes assessed as half life at 10 uM preincubated for 5 mins followed by NADPH addition by LC-MS/MS analysis; format: ADME, Microsome
[10] = Metabolic stability in human liver microsomes assessed as clearance at 10 uM preincubated for 5 mins followed by NADPH addition by LC-MS/MS analysis; format: ADME, Microsome; details: read-out: CLH
[11] = Metabolic stability in mouse liver microsomes assessed as half life at 10 uM preincubated for 5 mins followed by NADPH addition by LC-MS/MS analysis; format: ADME, Microsome
[12] = Metabolic stability in mouse liver microsomes assessed as clearance at 10 uM preincubated for 5 mins followed by NADPH addition by LC-MS/MS analysis; format: ADME, Microsome; details: read-out: CLH
[13] = Half life in Sprague-Dawley rat at 5 mg/kg, iv measured upto 72 hrs by LC-MS/MS analysis; format: ADME, organism-based; details: in vivo
[14] = Half life in Sprague-Dawley rat at 200 mg/kg, po measured upto 72 hrs by LC-MS/MS analysis; format: ADME, organism-based; details: in vivo
[15] = Cmax in Sprague-Dawley rat at 200 mg/kg, po measured upto 72 hrs by LC-MS/MS analysis; format: ADME, organism-based; set-up: route oral, dose 200 mg/kg, time <=72; details: in vivo
[16] = AUC(0 to t) in Sprague-Dawley rat at 5 mg/kg, iv measured upto 72 hrs by LC-MS/MS analysis; format: ADME, organism-based; set-up: route intravenous, dose 5 mg/kg, time <=72; details: in vivo
[17] = AUC(0 to t) in Sprague-Dawley rat at 200 mg/kg, po measured upto 72 hrs by LC-MS/MS analysis; format: ADME, organism-based; set-up: route oral, dose 200 mg/kg, time <=72; details: in vivo
[18] = AUC(0 to infinity) in Sprague-Dawley rat at 5 mg/kg, iv measured upto 72 hrs by LC-MS/MS analysis; format: ADME, organism-based; set-up: route intravenous, dose 5 mg/kg, time <=72; details: in vivo, 72 h
[19] = AUC(0 to infinity) in Sprague-Dawley rat at 200 mg/kg, po measured upto 72 hrs by LC-MS/MS analysis; format: ADME, organism-based; set-up: route oral, dose 200 mg/kg, time <=72; details: Sprague-Dawley, in vivo
[20] = Clearance in Sprague-Dawley rat at 5 mg/kg, iv measured upto 72 hrs by LC-MS/MS analysis; format: ADME, organism-based; details: in vivo, 5 mg/kg, 72 h
[21] = Clearance in Sprague-Dawley rat at 200 mg/kg, po measured upto 72 hrs by LC-MS/MS analysis; format: ADME, organism-based; details: Sprague-Dawley, in vivo
[22] = Apparent volume of distribution in Sprague-Dawley rat at 5 mg/kg, iv measured upto 72 hrs by LC-MS/MS analysis; format: ADME, organism-based; details: in vivo, read-out: Vz
[23] = Apparent volume of distribution in Sprague-Dawley rat at 200 mg/kg, po measured upto 72 hrs by LC-MS/MS analysis; format: ADME, organism-based; details: in vivo
[24] = Oral bioavailability in Sprague-Dawley rat at 200 mg/kg measured upto 72 hrs by LC-MS/MS analysis; format: ADME, organism-based; details: in vivo
HCT-116 [25] = test: Antitumor activity against human HCT-116 cells xenografted in BALB/c nude mouse assessed as tumor growth inhibition at 200 mg/kg, po administered twice daily measured after 28 days; format: functional; details: time 28 day
[26] = Toxicity in BALB/c nude mouse xenografted with human HCT-116 cells assessed as tolerability at 200 mg/kg, po administered twice daily measured after 28 days; format: organism-based; details: in vivo, 672 h, time 28 day
[27] = Toxicity in BALB/c nude mouse xenografted with human HCT-116 cells assessed as body weight loss at 200 mg/kg, po administered twice daily for 28 days and measured every 3 days; format: organism-based; details: in vivo, 672 h, time 28 day
[28] = Cmax in BALB/c nude mouse plasma xenografted with human HCT-116 cells at 200 mg/kg, po administered twice daily for 28 days; format: ADME, organism-based; set-up: route oral, time 28 day, dose 200 mg/kg
[29] = fCmax in BALB/c nude mouse plasma xenografted with human HCT-116 cells at 200 mg/kg, po administered twice daily for 28 days; format: ADME, organism-based; details: in vivo, 672 h, time 28 day
[30] = Free plasma protein in mouse; format: ADME, cell-free

## O=C1CCc2cccc(c2)OCCCC/C=C/CCCC(=O)Nc2nnc(s2)CCCCc2ccc(nn2)N1
[1]
  IC50: 25 nM
HCT-116 [2]
  IC50: 140 nM
MDA-MB-436
  IC50: 510 nM
HCT-116 [3]
  inhibition: Dose-Dependent Effect
[4]; read-out: logD
  logD: 4.29
[5]
  solubility thermodynamic: 1.84 µg/mL (≈ 3.35 µM)
[6]
  ΔTm: 16.7 °C

## O=C1Cc2cccc(c2)OCC/C=C/CCOc2cccc(c2)CC(=O)NC2=NN=C(CCCCC3=NN=C(N1)S3)S2
[1]
  IC50: 47 nM
HCT-116 [2]
  IC50: 350 nM
MDA-MB-436
  IC50: 470 nM
[4]; read-out: logD
  logD: 3.16
[5]
  solubility thermodynamic: 0.31 µg/mL (≈ 0.513 µM)
[6]
  ΔTm: 15.9 °C

## O=C1CCc2cccc(c2)OCC/C=C/CCCC(=O)Nc2nnc(s2)CCCCc2ccc(nn2)N1
[1]
  IC50: 372 nM
HCT-116 [2]
  IC50: 1450 nM
MDA-MB-436
  IC50: 6300 nM
[4]; read-out: logD
  logD: 3.08
[5]
  solubility thermodynamic: 2.05 µg/mL (≈ 3.94 µM)
[6]
  ΔTm: 11.7 °C

## O=C1Cc2ccc(cc2)OC/C=C/COc2ccc(cc2)CC(=O)Nc2nnc(s2)CCCCc2nnc(s2)N1
[1]
  IC50: 76 nM
HCT-116 [2]
  IC50: 420 nM
MDA-MB-436
  IC50: 790 nM
[4]; read-out: logD
  logD: 2.98
[5]
  solubility thermodynamic: 0.36 µg/mL (≈ 0.624 µM)
[6]
  ΔTm: 16.1 °C

## O=C1Cc2cccc(c2)OC/C=C/COc2cccc(c2)CC(=O)Nc2nnc(s2)CCCCc2ccc(nn2)N1
[1]
  IC50: 32 nM
HCT-116 [2]
  IC50: 260 nM
MDA-MB-436
  IC50: 640 nM
HCT-116 [3]
  inhibition: Dose-Dependent Effect
[4]; read-out: logD
  logD: 2.79
[5]
  solubility thermodynamic: 2.16 µg/mL (≈ 3.78 µM)
[6]
  ΔTm: 17.2 °C

## O=C(Cc1cccc(OC(F)(F)F)c1)Nc1ccc(CCCCc2nnc(NC(=O)Cc3ccccn3)s2)nn1
HCT-116 [2]
  IC50: 110 nM
MDA-MB-436
  IC50: 430 nM
[4]
  logD: 2.24
[7]
  remaining at 2 h: 72%
[8]
  remaining at 2 h: 84%
[9]
  half-life at 10 µM: 1.4 h
[10]
  microsomal CLint at 10 µM: 9.7 µL/min/mg
[11]
  half-life at 10 µM: 1.05 h
[12]
  microsomal CLint at 10 µM: 12.3 µL/min/mg
[13]
  half-life: 3.7 h
[14]
  half-life: 3.2 h
[15]
  Cmax: 1720 ng/mL
[16]
  AUC(0-t) at 72 h: 2380 ng·h/mL
[17]
  AUC(0-t) at 72 h: 18900 ng·h/mL
[18]
  AUC: 2431 ng·h/mL
[19]
  AUC(0-inf): 18900 ng·h/mL
[20]
  CL: 135 mL/min/kg
[21]
  CL/F: 187 mL/min/kg
[22]
  Vd: 26.1 L/kg
[23]
  Vz: 60.9 L/kg
[24]
  bioavailability: 19%
HCT-116 [25]
  TGI: 45%
[26]
  Activity: Non-Toxic
[27]
  Activity: Non-Toxic
[28]
  Cmax: 3.01 µM
[29]
  fCmax: 0.31 µM
[30]
  fraction unbound: 0.103

## O=C(Cc1ccccc1)Nc1nnc(CCSCCc2nnc(NC(=O)Cc3ccccc3)s2)s1
HCT-116 [2]
  IC50: 3910 nM
MDA-MB-436
  IC50: 5080 nM
[4]; read-out: logD
  logD: 2.86

## O=C1Cc2cccc(c2)OCCC/C=C/CCCOc2cccc(c2)CC(=O)NC2=NN=C(CCCCC3=NN=C(N1)S3)S2
[1]
  IC50: 82 nM
HCT-116 [2]
  IC50: 510 nM
MDA-MB-436
  IC50: 820 nM
[4]; read-out: logD
  logD: 3.49
[5]
  solubility thermodynamic: 0.25 µg/mL (≈ 0.395 µM)
[6]
  ΔTm: 16.7 °C

## O=C1Cc2cccc(c2)OCCCC/C=C/CCCCOc2cccc(c2)CC(=O)NC2=NN=C(CCCCC3=NN=C(N1)S3)S2
[1]
  IC50: 225 nM
HCT-116 [2]
  IC50: 7080 nM
MDA-MB-436
  IC50: 6490 nM
[4]; read-out: logD
  logD: 3.85
[5]
  solubility thermodynamic: 0.22 µg/mL (≈ 0.333 µM)
[6]
  ΔTm: 16.6 °C
